Measured values: US9943528B2 (MAPREG, priority 2016, dated 2018)
Read-outs that look alike come from different tables or passages of the source.

Columns and labels:
[1] = system: adult male Sprague Dawley rats; details: cited from earlier work
Wistar Kyoto (WKY) rats = assay: Neurogenesis in dentate gyrus of hippocampus (BrdU/NeuN) in WKY rats; assay type: in vivo, rat; details: chronic MAP4343 15 mg/kg, s.c., 24 days, FIG. 9C
Protocol: Wistar Kyoto (WKY) rats are considered as a model of treatment-resistant depression, while Wistar (WI) rats are used as control strain of WKY rats. During this experiment both WI and WKY rats were administered with MAP4343 (15 mg/Kg), subcutaneously (s.c.) for 24 days. Behavioral tests were performed at during the last week of treatment, and rats were finally sacrificed for addressing neurogenesis in Gyrus dentate of hippocampus using histological experiments. Organization of this protocol is depicted in FIG. 7.
MAP4343 was diluted in sesame oil, and then administered subcutaneously (s.c.) at the dose of 15 mg/kg during 24 days. The vehicle group received only the sesame oil (1 ml/kg) in the similar conditions.
Injections of BrdU were performed twice at D0, 24 and 22 hours before the beginning of treatment. All animals were equally given two injections of BrdU (75 mg/kg, dissolved in saline solution intraperitoneally), at two hours pulse-chase interval. […]
Neurogenesis in each dentate gyrus was manually measured by quantification of positive cells co-labelled with BrdU/NeuN, using a microscope equipped with epifluorescence (Zeiss Axiovert 200, objective 40×). Total number of new neurons in the entire dentate gyrus was estimated by multiplying the measured number by 8 (that corresponds to the number of unused sections separating each coronal sections used to count the newly-formed neurons). […]

[2] = target: T1, human progesterone receptor (PR) (Homo sapiens, UniProt P06401); assay: Test of progesterone receptor agonist activity (MMTV-luciferase transactivation in transfected HEK293T cells); assay type: cell-based; details: 24 hours, increasing amounts, FIG. 1
T1 construct: expressed in transfected cells; host or cells: HEK293T
T1 sequence (P06401 1-933): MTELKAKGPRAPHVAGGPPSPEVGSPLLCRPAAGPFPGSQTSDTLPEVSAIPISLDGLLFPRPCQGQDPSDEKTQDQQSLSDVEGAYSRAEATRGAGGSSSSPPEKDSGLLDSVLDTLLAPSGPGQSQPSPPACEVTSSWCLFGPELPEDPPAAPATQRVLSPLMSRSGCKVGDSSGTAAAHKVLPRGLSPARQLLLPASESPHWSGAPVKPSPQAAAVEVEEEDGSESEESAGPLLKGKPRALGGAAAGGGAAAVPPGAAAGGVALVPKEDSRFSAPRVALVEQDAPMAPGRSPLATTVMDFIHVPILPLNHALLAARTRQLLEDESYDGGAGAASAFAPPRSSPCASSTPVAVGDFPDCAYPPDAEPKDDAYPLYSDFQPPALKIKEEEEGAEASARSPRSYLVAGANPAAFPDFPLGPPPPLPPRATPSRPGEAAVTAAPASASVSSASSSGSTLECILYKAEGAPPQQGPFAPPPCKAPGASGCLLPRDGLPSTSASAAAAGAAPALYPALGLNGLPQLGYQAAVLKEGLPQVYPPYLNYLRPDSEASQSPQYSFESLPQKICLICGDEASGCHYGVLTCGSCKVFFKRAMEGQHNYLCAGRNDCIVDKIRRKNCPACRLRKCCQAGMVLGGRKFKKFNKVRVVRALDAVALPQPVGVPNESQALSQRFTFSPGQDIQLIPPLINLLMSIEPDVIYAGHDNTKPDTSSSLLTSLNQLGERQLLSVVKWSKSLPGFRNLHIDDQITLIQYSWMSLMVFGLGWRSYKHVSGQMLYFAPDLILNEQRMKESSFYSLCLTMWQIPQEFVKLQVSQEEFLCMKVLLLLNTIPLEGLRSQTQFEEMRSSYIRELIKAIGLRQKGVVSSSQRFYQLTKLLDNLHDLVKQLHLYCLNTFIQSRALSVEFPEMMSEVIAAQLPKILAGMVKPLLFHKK
Protocol: The main experimental setting used is the following: HEK293T cells were transiently transfected, using calcium phosphate precipitation technology, with expression vectors pSG5hPR (which permits expression of human progesterone receptor (PR)), pFC31-luc (contains the luciferase gene under the control of the MMTV promoter, which is in turn activated by binding of a progestin to progesterone receptor) and pcbetagal (which permits expression of betagalactosidase), and cultured during 24 hours with increasing amounts of various compositions:
Test of Progesterone Receptor Agonist Activity: Transfected Cells were Cultured with Increasing Amounts of Progesterone or 3-Methoxy-Pregnenolone

## CO[C@H]1CC[C@@]2(C)C(=CC[C@H]3[C@@H]4CC[C@H](C(C)=O)[C@@]4(C)CC[C@@H]32)C1 [MAP4343, 3β-methoxy-pregna-5-ene-20-one]
[1]; naïve adult male Sprague Dawley rats, U.S. Pat. No. 8,334,278
  immobility in the forced swimming test: decreases immobility
[1]; social-isolated adult male Sprague Dawley rats, Bianchi and Baulieu, 2012
  immobility in the forced swimming test: decreased immobility
Wistar Kyoto (WKY) rats
  number of newly-formed neurons (BrdU and Neu-N) in dentate gyrus, change vs WKY receiving only vehicle: +71%
[2]
  progesterone receptor agonist activity (transactivation, expression of luciferase): does not have progesterone receptor agonist activity
